Test results: ChEMBL document CHEMBL4507264, “Data for DCP probe BAY-7598” (2021); call rule not given here

Legend:
Rattus norvegicus [1] = organism: Rattus norvegicus; details: Compound concentration 10.0 uM
[2] = molecular target: voltage-gated sodium channel, site 2 (Rattus norvegicus, UniProt F1LQQ7+O08562+O88420+O88457+P04774+P04775+P08104+P15389+P15390+Q62968); test: Inhibition of Sodium Channel, Site 2 at 10 µM in the Eurofins-Panlabs radioligand binding assay (Eurofins_assay_279510); type: protein assay; parameters: ligand concentration 5 nM, non-specific ligand with concentration 100 µM Veratridine, incubation time 60 min, incubation temperature 37 °C; details: male, Wistar, rat whole brain (except cerebellum) membranes, probe [3H] Batrachotoxinin, compound concentration 10 uM
[3] = molecular target: T1, 5-hydroxytryptamine receptor 1A (Homo sapiens) (UniProt P08908); details: Compound concentration 10.0 uM
T1 sequence (whole entry): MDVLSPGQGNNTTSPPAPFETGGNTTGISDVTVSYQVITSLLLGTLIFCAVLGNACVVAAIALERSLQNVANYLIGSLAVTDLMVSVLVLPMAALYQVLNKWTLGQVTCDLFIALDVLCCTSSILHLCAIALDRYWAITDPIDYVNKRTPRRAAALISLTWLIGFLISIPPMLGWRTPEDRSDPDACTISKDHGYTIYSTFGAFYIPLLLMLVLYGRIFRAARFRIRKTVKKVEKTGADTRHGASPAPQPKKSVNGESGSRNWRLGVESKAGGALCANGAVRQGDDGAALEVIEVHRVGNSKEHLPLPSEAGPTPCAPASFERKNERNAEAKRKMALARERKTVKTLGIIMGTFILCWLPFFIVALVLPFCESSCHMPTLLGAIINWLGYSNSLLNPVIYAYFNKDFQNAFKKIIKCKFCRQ

Rattus norvegicus [4] = organism: Rattus norvegicus; test: Inhibition of Rolipram at 10 µM in the Eurofins-Panlabs radioligand binding assay (Eurofins_assay_268811); type: protein assay; parameters: ligand concentration 1.8 nM; details: Compound concentration 10.0 uM
[5] = molecular target: T2, Muscarinic acetylcholine receptor M2 (Homo sapiens) (UniProt P08172); details: Compound concentration 10.0 uM
T2 sequence (whole entry): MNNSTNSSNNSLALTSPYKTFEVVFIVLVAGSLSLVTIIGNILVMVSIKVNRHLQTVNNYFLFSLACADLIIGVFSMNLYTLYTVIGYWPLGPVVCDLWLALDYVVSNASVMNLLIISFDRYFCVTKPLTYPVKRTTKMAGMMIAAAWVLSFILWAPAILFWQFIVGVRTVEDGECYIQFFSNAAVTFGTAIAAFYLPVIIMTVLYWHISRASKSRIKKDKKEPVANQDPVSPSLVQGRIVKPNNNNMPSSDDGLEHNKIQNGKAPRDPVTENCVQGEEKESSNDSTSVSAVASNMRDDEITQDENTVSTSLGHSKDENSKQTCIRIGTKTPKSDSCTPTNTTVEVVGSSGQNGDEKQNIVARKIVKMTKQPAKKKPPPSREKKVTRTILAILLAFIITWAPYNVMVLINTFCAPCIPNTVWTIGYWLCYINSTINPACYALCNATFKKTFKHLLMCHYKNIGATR

Oryctolagus cuniculus = organism: Oryctolagus cuniculus; test: Inhibition of Purinergic P2X at 10 µM in the Eurofins-Panlabs radioligand binding assay (Eurofins_assay_268700); type: protein assay; details: Compound concentration 10.0 uM
[6] = molecular target: Endothelin receptor type B (Homo sapiens) (UniProt P24530); details: Compound concentration 10.0 uM
Chain of Endothelin receptor type B (Homo sapiens) (P24530 whole entry): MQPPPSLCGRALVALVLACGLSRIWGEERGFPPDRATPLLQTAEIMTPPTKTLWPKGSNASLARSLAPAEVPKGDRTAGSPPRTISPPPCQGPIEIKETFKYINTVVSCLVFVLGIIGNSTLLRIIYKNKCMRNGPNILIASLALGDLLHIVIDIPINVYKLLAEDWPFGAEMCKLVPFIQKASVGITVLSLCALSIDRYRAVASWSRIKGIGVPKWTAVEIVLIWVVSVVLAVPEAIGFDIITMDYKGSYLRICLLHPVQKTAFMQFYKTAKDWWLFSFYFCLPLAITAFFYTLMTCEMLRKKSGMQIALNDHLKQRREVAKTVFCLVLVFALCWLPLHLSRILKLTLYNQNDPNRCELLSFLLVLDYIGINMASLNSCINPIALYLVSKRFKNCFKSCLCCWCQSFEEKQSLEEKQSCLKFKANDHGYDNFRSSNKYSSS

[7] = molecular target: Platelet-activating factor receptor (Homo sapiens) (UniProt P25105); test: Inhibition of Platelet Activating Factor (PAF) at 10 µM in the Eurofins-Panlabs radioligand binding assay (Eurofins_assay_265010); details: Compound concentration 10.0 uM
Chain of Platelet-activating factor receptor (Homo sapiens) (P25105 whole entry): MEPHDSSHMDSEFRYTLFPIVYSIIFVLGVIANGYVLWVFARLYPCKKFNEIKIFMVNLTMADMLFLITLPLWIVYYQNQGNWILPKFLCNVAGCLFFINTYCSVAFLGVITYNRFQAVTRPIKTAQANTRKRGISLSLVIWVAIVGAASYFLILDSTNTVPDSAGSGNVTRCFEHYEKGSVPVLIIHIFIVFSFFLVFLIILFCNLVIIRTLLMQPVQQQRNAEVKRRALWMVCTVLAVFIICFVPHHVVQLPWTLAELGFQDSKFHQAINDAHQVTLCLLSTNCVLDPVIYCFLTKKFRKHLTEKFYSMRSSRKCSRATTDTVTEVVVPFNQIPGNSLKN

Rattus norvegicus [8] = organism: Rattus norvegicus; test: Inhibition of Imidazoline I2, Central at 10 µM in the Eurofins-Panlabs radioligand binding assay (Eurofins_assay_241000); parameters: ligand concentration 2 nM; details: Compound concentration 10.0 uM
[9] = molecular target: Histamine H1 receptor (Homo sapiens) (UniProt P35367); details: Compound concentration 10.0 uM
Chain of Histamine H1 receptor (Homo sapiens) (P35367 whole entry): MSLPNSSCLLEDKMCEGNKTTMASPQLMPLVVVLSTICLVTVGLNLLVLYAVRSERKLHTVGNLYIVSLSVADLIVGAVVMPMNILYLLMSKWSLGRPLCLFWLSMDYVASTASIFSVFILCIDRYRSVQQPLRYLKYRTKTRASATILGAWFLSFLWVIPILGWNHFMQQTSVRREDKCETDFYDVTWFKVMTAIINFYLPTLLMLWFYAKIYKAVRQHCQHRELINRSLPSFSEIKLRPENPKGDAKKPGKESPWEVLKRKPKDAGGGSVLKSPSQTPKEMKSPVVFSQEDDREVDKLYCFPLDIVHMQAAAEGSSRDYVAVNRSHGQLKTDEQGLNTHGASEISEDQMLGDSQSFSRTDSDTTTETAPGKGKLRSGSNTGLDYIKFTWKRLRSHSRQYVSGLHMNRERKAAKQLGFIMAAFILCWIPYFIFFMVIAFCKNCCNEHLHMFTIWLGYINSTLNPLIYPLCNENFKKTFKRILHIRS

[10] = molecular target: Sodium-dependent noradrenaline transporter (Homo sapiens) (UniProt P23975); details: Compound concentration 10.0 uM
Chain of Sodium-dependent noradrenaline transporter (Homo sapiens) (P23975 whole entry): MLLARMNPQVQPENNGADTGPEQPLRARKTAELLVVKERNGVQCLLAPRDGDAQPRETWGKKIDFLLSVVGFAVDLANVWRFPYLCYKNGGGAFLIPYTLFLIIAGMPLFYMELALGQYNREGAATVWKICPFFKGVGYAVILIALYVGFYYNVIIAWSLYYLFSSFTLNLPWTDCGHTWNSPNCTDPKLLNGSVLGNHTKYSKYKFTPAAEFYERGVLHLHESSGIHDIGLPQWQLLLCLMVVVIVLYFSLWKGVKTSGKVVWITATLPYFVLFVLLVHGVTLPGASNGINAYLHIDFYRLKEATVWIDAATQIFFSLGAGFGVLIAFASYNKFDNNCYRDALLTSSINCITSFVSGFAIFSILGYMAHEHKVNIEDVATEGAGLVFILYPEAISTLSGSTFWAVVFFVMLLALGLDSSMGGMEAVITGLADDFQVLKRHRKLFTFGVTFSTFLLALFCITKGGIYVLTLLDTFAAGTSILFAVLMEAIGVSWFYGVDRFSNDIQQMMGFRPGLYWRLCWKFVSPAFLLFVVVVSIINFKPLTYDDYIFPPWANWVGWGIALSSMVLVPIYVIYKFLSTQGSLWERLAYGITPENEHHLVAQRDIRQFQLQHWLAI

[11] = molecular target: Cysteinyl leukotriene receptor 1 (Homo sapiens) (UniProt Q9Y271); test: Inhibition of Leukotriene, Cysteinyl CysLT1 at 10 µM in the Eurofins-Panlabs radioligand binding assay (Eurofins_assay_250460); parameters: ligand concentration 0.3 nM, non-specific ligand with concentration 0.3 µM Leukotriene D4, incubation time 30 min, incubation temperature 25 °C; details: Compound concentration 10.0 uM
Chain of Cysteinyl leukotriene receptor 1 (Homo sapiens) (Q9Y271 whole entry): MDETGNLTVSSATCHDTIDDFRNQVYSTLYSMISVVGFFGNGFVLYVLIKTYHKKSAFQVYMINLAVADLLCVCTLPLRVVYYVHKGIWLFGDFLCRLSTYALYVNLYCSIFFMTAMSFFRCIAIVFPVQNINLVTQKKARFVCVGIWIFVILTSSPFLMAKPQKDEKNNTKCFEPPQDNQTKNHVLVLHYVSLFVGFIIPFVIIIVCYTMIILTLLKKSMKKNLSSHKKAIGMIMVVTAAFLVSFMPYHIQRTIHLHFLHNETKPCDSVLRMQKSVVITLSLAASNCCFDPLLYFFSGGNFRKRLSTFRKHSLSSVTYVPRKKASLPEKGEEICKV

[12] = molecular target: T3, D(4) dopamine receptor (Homo sapiens) (UniProt P21917); test: Inhibition of Dopamine D4.2 at 10 µM in the Eurofins-Panlabs radioligand binding assay (Eurofins_assay_219900); parameters: ligand concentration 0.5 nM; details: Compound concentration 10.0 uM
T3 sequence (whole entry): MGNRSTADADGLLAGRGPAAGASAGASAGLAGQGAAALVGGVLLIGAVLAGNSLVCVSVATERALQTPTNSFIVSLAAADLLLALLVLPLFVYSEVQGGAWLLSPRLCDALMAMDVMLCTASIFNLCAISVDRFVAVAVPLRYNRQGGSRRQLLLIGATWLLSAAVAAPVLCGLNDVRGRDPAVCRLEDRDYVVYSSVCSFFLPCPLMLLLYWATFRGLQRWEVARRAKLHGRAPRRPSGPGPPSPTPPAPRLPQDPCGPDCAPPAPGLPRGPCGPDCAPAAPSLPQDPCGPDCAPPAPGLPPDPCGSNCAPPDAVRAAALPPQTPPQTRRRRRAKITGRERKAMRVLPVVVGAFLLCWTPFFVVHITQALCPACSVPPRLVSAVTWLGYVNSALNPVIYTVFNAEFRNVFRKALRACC

[13] = molecular target: B1 bradykinin receptor (Homo sapiens) (UniProt P46663); test: Inhibition of Bradykinin B1 at 10 µM in the Eurofins-Panlabs radioligand binding assay (Eurofins_assay_212510); details: Compound concentration 10.0 uM
Chain of B1 bradykinin receptor (Homo sapiens) (P46663 whole entry): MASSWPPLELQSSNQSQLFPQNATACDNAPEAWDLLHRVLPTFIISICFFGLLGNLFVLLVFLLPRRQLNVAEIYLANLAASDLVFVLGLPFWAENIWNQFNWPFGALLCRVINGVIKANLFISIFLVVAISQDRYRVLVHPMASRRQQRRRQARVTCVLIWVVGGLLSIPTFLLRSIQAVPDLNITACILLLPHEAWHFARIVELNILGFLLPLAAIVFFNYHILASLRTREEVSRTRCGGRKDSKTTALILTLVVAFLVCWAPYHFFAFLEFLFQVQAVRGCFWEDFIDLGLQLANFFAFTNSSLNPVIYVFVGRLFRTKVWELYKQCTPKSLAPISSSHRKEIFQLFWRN

[14] = molecular target: D(3) dopamine receptor (Homo sapiens) (UniProt P35462); details: Compound concentration 10.0 uM
Chain of D(3) dopamine receptor (Homo sapiens) (P35462 whole entry): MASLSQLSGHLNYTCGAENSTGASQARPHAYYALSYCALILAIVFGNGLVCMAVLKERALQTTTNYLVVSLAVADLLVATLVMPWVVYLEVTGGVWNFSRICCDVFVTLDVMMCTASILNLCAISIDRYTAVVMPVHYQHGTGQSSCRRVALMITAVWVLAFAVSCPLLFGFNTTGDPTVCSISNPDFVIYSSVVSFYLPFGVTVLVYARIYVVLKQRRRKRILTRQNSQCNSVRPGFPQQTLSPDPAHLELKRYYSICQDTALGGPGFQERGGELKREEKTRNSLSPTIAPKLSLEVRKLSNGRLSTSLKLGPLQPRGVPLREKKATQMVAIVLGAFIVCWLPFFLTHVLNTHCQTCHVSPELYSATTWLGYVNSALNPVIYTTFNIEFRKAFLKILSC

[15] = molecular target: Substance-P receptor (Homo sapiens) (UniProt P25103); test: Inhibition of Tachykinin NK1 at 10 µM in the Eurofins-Panlabs radioligand binding assay (Eurofins_assay_255520); parameters: ligand concentration 0.8 nM; details: Compound concentration 10.0 uM
Chain of Substance-P receptor (Homo sapiens) (P25103 whole entry): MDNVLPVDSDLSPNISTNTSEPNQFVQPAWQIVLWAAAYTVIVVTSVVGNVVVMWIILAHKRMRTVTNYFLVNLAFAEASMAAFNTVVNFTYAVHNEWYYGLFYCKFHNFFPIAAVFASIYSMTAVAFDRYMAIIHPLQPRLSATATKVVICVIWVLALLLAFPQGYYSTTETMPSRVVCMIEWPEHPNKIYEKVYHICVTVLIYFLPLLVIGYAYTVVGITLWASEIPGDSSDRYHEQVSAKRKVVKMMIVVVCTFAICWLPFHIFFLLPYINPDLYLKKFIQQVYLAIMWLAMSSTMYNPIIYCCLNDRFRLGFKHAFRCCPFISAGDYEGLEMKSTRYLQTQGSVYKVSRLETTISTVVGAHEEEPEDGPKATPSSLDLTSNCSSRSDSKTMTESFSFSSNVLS

[16] = molecular target: Estrogen receptor (Homo sapiens) (UniProt P03372); details: Compound concentration 10.0 uM
[17] = molecular target: Sodium-dependent serotonin transporter (Homo sapiens) (UniProt P31645); details: Compound concentration 10.0 uM
Chain of Sodium-dependent serotonin transporter (Homo sapiens) (P31645 whole entry, looked up): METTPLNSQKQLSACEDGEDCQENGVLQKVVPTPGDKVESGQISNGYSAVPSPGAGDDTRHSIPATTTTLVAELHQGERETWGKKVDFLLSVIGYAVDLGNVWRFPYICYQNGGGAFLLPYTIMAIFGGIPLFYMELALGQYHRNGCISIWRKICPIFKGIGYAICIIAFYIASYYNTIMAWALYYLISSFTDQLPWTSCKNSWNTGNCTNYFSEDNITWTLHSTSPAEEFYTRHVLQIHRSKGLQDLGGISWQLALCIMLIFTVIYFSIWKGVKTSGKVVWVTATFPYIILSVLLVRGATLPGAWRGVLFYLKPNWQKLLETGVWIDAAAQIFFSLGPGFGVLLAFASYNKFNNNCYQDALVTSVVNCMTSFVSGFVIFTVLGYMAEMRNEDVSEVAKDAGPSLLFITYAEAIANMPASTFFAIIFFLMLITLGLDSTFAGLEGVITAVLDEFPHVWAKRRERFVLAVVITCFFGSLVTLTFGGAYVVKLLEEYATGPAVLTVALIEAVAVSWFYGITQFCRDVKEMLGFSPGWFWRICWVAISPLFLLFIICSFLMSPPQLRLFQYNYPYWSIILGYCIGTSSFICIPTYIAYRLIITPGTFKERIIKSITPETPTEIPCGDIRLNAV

Rattus norvegicus [18] = organism: Rattus norvegicus; test: Testosterone Eurofins-Panlabs radioligand binding assay; parameters: ligand concentration 1.5 nM; details: Compound concentration 10.0 uM
[19] = molecular target: Adenosine receptor A3 (Homo sapiens) (UniProt P0DMS8); details: Compound concentration 10.0 uM
Chain of Adenosine receptor A3 (Homo sapiens) (P0DMS8 whole entry): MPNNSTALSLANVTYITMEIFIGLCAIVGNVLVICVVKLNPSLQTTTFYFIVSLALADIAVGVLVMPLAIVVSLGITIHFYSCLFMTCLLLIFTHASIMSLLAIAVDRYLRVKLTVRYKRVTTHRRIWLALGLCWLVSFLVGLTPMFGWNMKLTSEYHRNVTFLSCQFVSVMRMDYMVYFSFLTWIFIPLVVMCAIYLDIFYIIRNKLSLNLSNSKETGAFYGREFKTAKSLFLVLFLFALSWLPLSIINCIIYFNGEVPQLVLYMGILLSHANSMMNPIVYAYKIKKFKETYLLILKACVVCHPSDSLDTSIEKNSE

[20] = molecular target: Beta-2 adrenergic receptor (Homo sapiens) (UniProt P07550); details: Compound concentration 10.0 uM
[21] = molecular target: Sodium-dependent dopamine transporter (Homo sapiens) (UniProt Q01959); details: Compound concentration 10.0 uM
Rattus norvegicus [22] = organism: Rattus norvegicus; test: Inhibition of Glutamate, NMDA, Phencyclidine at 10 µM in the Eurofins-Panlabs radioligand binding assay (Eurofins_assay_233000); type: protein-complex assay; details: Compound concentration 10.0 uM
[23] = molecular target: D(1A) dopamine receptor (Homo sapiens) (UniProt P21728); details: Compound concentration 10.0 uM
Chain of D(1A) dopamine receptor (Homo sapiens) (P21728 whole entry): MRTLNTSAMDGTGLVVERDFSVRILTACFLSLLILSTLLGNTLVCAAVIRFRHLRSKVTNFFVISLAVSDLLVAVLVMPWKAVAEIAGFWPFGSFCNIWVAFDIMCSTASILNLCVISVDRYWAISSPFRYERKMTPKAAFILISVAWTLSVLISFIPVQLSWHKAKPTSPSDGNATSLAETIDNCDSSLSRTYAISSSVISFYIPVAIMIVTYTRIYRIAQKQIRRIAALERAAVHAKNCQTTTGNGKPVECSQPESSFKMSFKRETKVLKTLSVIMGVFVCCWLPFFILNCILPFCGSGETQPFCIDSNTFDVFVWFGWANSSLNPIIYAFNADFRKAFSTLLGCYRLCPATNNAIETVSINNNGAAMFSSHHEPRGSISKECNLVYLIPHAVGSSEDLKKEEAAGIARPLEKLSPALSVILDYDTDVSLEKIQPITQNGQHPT

[24] = molecular target: Glucocorticoid receptor (Homo sapiens) (UniProt P04150); details: Compound concentration 10.0 uM

O=C(O)[C@H]1[C@H](Cn2nnc3ccccc3c2=O)CC[C@@H]1C(=O)c1ccc(OCCC2CCOCC2)cc1 [BAY-7598]
inhibition (Rattus norvegicus [1]): 1%
inhibition at 60 min, 10 µM [2]: -1% (not active)
inhibition [3]: -9%
inhibition (Rattus norvegicus [4]): 10%
inhibition [5]: 0%
inhibition (Oryctolagus cuniculus): -1%
inhibition [6]: 18%
inhibition [7]: 6%
inhibition (Rattus norvegicus [8]): 5%
inhibition [9]: 1%
inhibition [10]: 6%
inhibition [11]: 8%
inhibition [12]: -2%
inhibition [13]: 6%
inhibition [14]: 12%
inhibition [15]: -4%
inhibition [16]: 2%
inhibition [17]: 9%
inhibition (Rattus norvegicus [18]): 12%
inhibition [19]: 13%
inhibition [20]: 4%
inhibition [21]: 0%
inhibition (Rattus norvegicus [22]): 4%
inhibition [23]: 3%
inhibition [24]: 12%
